In US12419862B2, “Use of a cathepsin s inhibitor against the formation of anti-drug antibodies” (Hoffmann-La Roche Inc., priority 2018, dated 2025):

What was measured:
[1] = test system: CEA-specific IgG response; assay: ADA against CEA-IL2v in wild-type mice over time, ELISA (Example 4, 63 days); type: in vivo, C57BL/6 wild type mice; conditions: 40 mg/kg/day via food admix, primary and memory response, samples to day 63, vs vehicle
Method: (§1) 15-week-old mice C57BL/6-Tg (hIgG1,k,l) and C57BL/6 wild type mixed gender were purchased from Taconic (Denmark) and housed at the animal facilities in room with air-conditioned under a 12 hours light/dark cycle in macrolon boxes with enriched environment and free access to water and food. 7×10 μg of CEA-IL2v (Batch no GLI0144-01) were injected at day 0, 4, 7, 11, 14, 18 and 21 for the primary response, and at day 49, 53, 56 and 60 for the memory response. The CEA-112v injections were done subcutaneously in the right flank or the left flank alternatively. The dosage of (2S,4R)-4-[4-(1-methyl-1H-pyrazol-4-yl)-2-trifluoromethyl-benzenesulfonyl]-1-(1-trifluoromethyl-cyclopropanecarbonyl)-pyrrolidine-2-carboxylic acid (1-cyano-cyclopropyl)-amide consumption was 40 mg/kg/day. […]
(§2) Nunc Maxisorp flat-bottom 96 well ELISA plates were coated with 100 μl per well of Humira or CEA-PGLALA respectively at 5 μg/mL in NaHCO3100 mM buffer overnight at +4° C. […] 100 μl of substrate P-nitrophenyl phosphate ready to use (Life Technologies, Cat no 002212) were added per well and after 10 min incubation at room temperature, the OD at 405 nm was read as an end-point measurement with a Versamax ELISA reader.

[2] = test system: IgG response to murine surrogate FAP-OX40; assay: ADA against murine surrogate FAP-OX40 in wild-type mice, ELISA (Example 6); type: in vivo, C57BL/6 mice; conditions: 40 mg/kg/day via food admix from one week before first immunization until day 23
Method: 10-week-old female mice C57BL/6 were purchased from Charles River Laboratories (Germany) and housed at the animal facilities in room with air-conditioned under a 12 hours light/dark cycle in macrolon boxes with enriched environment and free access to water and food. 12.5 mg/kg of muFAP-OX40iMab (P1AD4396-005) were injected at day 1, 4 and 8 intravenously to the group 2 (n=10 mice) and at day 1, 4, 8, 11, 15, 18 and 22 to the group 3 (n=10 mice) respectively. The dosage of (2S,4R)-4-[4-(1-methyl-1H-pyrazol-4-yl)-2-trifluoromethyl-benzenesulfonyl]-1-(1-trifluoromethyl-cyclopropanecarbonyl)-pyrrolidine-2-carboxylic acid (1-cyano-cyclopropyl)-amide consumption was 40 mg/kg/day. […]
Nunc Maxisorp flat-bottom 96 well ELISA plates were coated with 100 μl per well of FAP(28H1)-OX40(49B4) PGLALA (P1AD4523) or anti OX40 moIgG2a (P1AD4561) respectively at 5 μg/mL in NaHCO3100 mM buffer overnight at +4° C. […] 100 μl of substrate P-nitrophenyl phosphate ready to use (Life Technologies, Cat no 002212) were added per well and after 10 min incubation at room temperature, the OD at 405 nm was read as an end-point measurement with a Versamax ELISA reader.

[3] = test system: CEA-specific IgG response; assay: ADA against CEA-IL2v in hIgG1 Tg mice over time, ELISA (Example 4, 63 days); type: in vivo, C57BL/6-Tg (hIgG1,k,l) mice; conditions: 40 mg/kg/day via food admix, primary and memory response, samples to day 63, vs vehicle
Method: as §1, §2

Cn1cc(-c2ccc(S(=O)(=O)[C@@H]3C[C@@H](C(=O)NC4(C#N)CC4)N(C(=O)C4(C(F)(F)F)CC4)C3)c(C(F)(F)F)c2)cn1 [cathepsin S inhibitor, (2S,4R)-4-[4-(1-methyl-1H-pyrazol-4-yl)-2-trifluoromethyl-benzenesulfonyl]-1-(1-trifluoromethyl-cyclopropanecarbonyl)-pyrrolidine-2-carboxylic acid (1-cyano-cyclopropyl)-amide]
ADA to CEA-IL2v (CEA-specific IgG) over time [1]: reduces its levels in wild-type mice | ADA specific to FAP (VHVL) domain of murine surrogate FAP-OX40 [2]: prevents ADA | OX40-specific ADA to murine surrogate FAP-OX40 [2]: prevents ADA | ADA to CEA-IL2v (CEA-specific IgG) over time [3]: prevents ADA to CEA-IL2v in hIgG transgenic mice
